This is an account of results in patent publication US7863408B2, “Body fluid compatible and biocompatible resin” (Asahi Kasei Kabushiki Kaisha, priority 2002, dated 2011).

Data set [1] can be described thus: Solubility in physiological saline. The settings on record: for dissolution of 10 mg compound in 0.1 ml of physiological saline / dissolution ratio in terms of camptothecin: Example 162; for dissolution ratio in terms of camptothecin: physiological saline, 10 mg compound in 0.1 ml. It counts as physicochemical. The protocol:
10 mg of each of compounds (203) and (206) was precisely weighed and individually added to 0.1 ml of physiological saline.

The subject of data set [2] is Colon 26 tumor cells. Nature of the data set: Antitumor assay, Colon 26. It counts as in vivo, mouse. The conditions noted are these: Balb/C mice, 50 mg/kg in terms of paclitaxel. As to the method: Further, a control solution was prepared by dissolving paclitaxel as such in a mixture of ethanol, Cremophore EL (manufactured and sold by Sigma, U.S.A.) and physiological saline. Thus, two types of solutions, namely, a test sample solution and a control solution were obtained. Six female Balb/C mice (six weeks old) were divided into two groups, each consisting of three mice, and subsequently, a 4% suspension of Colon 26 tumor cells was intradermally transplanted to the flank of each of the mice. […] Each mouse of the other group of the two groups received administration of the control solution, wherein the control solution was administered in the same manner as in the case of the administration of the test sample solution (i.e., the dose of paclitaxel was 50 mg/kg), thereby obtaining a control group of mice. Separately, a group consisting of five female Balb/C mice (six weeks old), which were transplanted with Colon 26 tumor cells in the same manner as mentioned above, was provided. Each of the mice of such group received the administration of only physiological saline in the same manner as in the case of the administration of the test sample solution, to thereby obtain a non-treated group of mice. Each of the above-mentioned administration of the test sample solution, control solution and physiological saline was performed every 4 days, 7 times in total in the above-mentioned manner.
Evaluation was made of the antitumor activity in terms of the change (with the lapse of time) of the average tumor volume (%). The tumor volume was determined as follows. The major and minor diameters (a and b, respectively) (each in mm) of the tumor were externally measured, and the tumor volume (V) was obtained according to the following formula.
Further, a control solution was prepared by dissolving paclitaxel as such in a mixture of ethanol, Cremophore EL (manufactured and sold by Sigma, U.S.A.) and physiological saline. Thus, five types of solutions, namely, four types of test sample solutions and one control solution were obtained. Twenty-five female Balb/C mice (six weeks old) were divided into five groups, each consisting of five mice, and subsequently, a 4% suspension of Colon 26 tumor cells was intradermally transplanted to the flank of each of the mice. After two days from the transplantation, four groups of the five groups of mice respectively received the administration of the four test sample solutions obtained above, wherein the dose of the compound was 50 mg/kg in terms of paclitaxel. Each mouse of the other group of the five groups received administration of the control solution, wherein the control solution was administered in the same manner as in the case of the administration of the test sample solution (i.e., the dose of paclitaxel was 50 mg/kg), thereby obtaining a control group of mice. Separately, a group consisting of nine female Balb/C mice (six weeks old), which were transplanted with Colon 26 tumor cells in the same manner as mentioned above, was provided. Each of the mice of such group received the administration of only physiological saline in the same manner as in the case of the administration of the test sample solution, to thereby obtain a non-treated group of mice. Each of the above-mentioned administration of the test sample solution, control solution and physiological saline was performed every 7 days, 4 times in total in the above mentioned manner.
Evaluation was made of the antitumor activity in terms of the change (with the lapse of time) of the average tumor volume (%). The tumor volume was determined as follows. The major and minor diameters (a and b, respectively) (each in mm) of the tumor were externally measured, and the tumor volume was obtained according to the following formula.

Data set [3] relates to B16 melanoma cells. The conditions noted are these: Example 149; C57BL/6 mice; 50 mg/kg in terms of paclitaxel, tail-vein injection; six days after administration.
Description: Further, a control solution was prepared by dissolving paclitaxel as such in a mixture of ethanol, Cremophore EL (manufactured and sold by Sigma, U.S.A.) and physiological saline. Thus, two types of solutions, namely, a test sample solution and a control solution were obtained. Twenty-one female C57BL/6 mice (six weeks old) were divided into three groups, each consisting of seven mice, and subsequently, B16 melanoma cells were intradermally transplanted to the groin of each of the mice (5×10^6 cells per mouse). […] Each mouse of the other one group of the three groups received the administration of the control solution, wherein the control solution was administered in substantially the same manner as in the above-mentioned administration of the test sample solution, except that the dose of paclitaxel was 50 mg/kg, thereby obtaining a control group of mice. Separately, a group consisting of thirteen female C57BL/6 mice (six weeks old), which were transplanted with B16 melanoma cells in the same manner as mentioned above, was provided. Each of the mice of such group received the administration of physiological saline, to thereby obtain a non-treated group of mice.
Setting [4] is: Example 151, every 7 days, 4 times.

In the case of `CC(=O)O[C@H]1C(=O)[C@@]2(C)[C@H]([C@H](OC(=O)c3ccccc3)[C@]3(O)C[C@H](OC(=O)[C@H](O)[C@@H](NC(=O)c4ccccc4)c4ccccc4)C(C)=C1C3(C)C)[C@]1(OC(C)=O)CO[C@@H]1C[C@@H]2O` [paclitaxel, reference compound], the “dissolution of 1 mg in 10 ml of physiological saline” value in data set [1] (Example 145) is “not able to be completely dissolved”. Moreover, in data set [2] (setting [4]), the “order of the magnitudes of the antitumor activity” value (shortened to “order”) is listed as “(177)/(179)>(181)>(183)/paclitaxel”.

“carboxymethylated polyether-2′-Ala-paclitaxel [(179)]”: in data set [2] (setting [4]), the “antitumor activity (average tumor volume with time) compared to paclitaxel as such” value is listed as “significantly excellent” and the “order” value is “(177)/(179)>(181)>(183)/paclitaxel”.

With “carboxymethylated polyether-2′-Gly-Gly-Phe-Gly-paclitaxel [Compound (197)]”, the “antitumor activity (average tumor volume with time) compared to paclitaxel as such” value in data set [2] (Example 150, every 4 days, 7 times) is “significantly excellent”. In data set [3], the “antitumor activity (relative average tumor volume) compared to paclitaxel as such” value is listed as “significantly excellent”.

In the case of “carboxymethylated polyether-2′-Gly-paclitaxel [Compound (177)]”, in data set [2] (setting [4]), the “antitumor activity (average tumor volume with time) compared to paclitaxel as such” value is given as “significantly excellent” and the “order” value is listed as “(177)/(179)>(181)>(183)/paclitaxel”.

For the molecule “carboxymethylated polyether-2′-Ile-paclitaxel [(183)]”, in data set [2] (setting [4]), the “order” value is given as “(177)/(179)>(181)>(183)/paclitaxel”.

Regarding “carboxymethylated polyether-2′-Leu-paclitaxel [(181)]”, in data set [2] (setting [4]), the “order” value is reported as “(177)/(179)>(181)>(183)/paclitaxel”.

On to “carboxymethylated polyether-20-Gly-Gly-Phe-Gly-camptothecin [(206)]”, for which, in data set [1], the “dissolution of 10 mg compound in 0.1 ml of physiological saline” value is “completely dissolved” and the “dissolution ratio in terms of camptothecin” value is 4.5 mg/mL.

As to “carboxymethylated polyether-20-Gly-camptothecin [Compound (203)]”, in data set [1], the “dissolution of 10 mg compound in 0.1 ml of physiological saline” value is reported as “completely dissolved” and the “dissolution ratio in terms of camptothecin” value stood at 3.5 mg/mL.
